In brackets after ≈: the same amount, converted by molar mass.
What was measured:
pKa of levosimendan = format: physicochemical
Experimental: (§1) At room temperature the solubility of levosimendan in phosphate buffer is 0.4 mg/ml (pH 7.4), 0.03 mg/ml (pH 6) and 0.02 mg/ml (pH 2). Thus, the water solubility of levosimendan decreases quite sharply when pH is lowered below neutral. […] Such solutions are chemically and physically stable over an extended period of time and, therefore, they are particularly suitable for pharmaceutical use.

[1] = Solubility of levosimendan in phosphate buffer at room temperature; format: physicochemical; conditions: aqueous buffer
Experimental: as §1

- pKa (pKa of levosimendan): 6.26
- solubility ([1]; pH 2): 20 µg/mL (≈ 71.4 µM)
- solubility ([1]; pH 6): 30 µg/mL (≈ 107 µM)
- solubility ([1]; pH 7.4): 400 µg/mL (≈ 1430 µM)
SMILES: CC1CC(=O)NN=C1c1ccc(NN=C(C#N)C#N)cc1 (single isomer, unassigned; (-)) [levosimendan, (−)-[[4-(1,4,5,6-tetrahydro-4-methyl-6-oxo-3-pyridazinyl)phenyl]hydrazono]propanedinitrile]

Source: US6943164B2, “Pharmaceutical solutions of levosimendan” (Orion Corporation, priority 1999, dated 2005)
